Consider 14 compounds from US8765940B2 (priority 2009, dated 2014).

Like-named read-outs stand apart in the source and are kept apart here.

One assay deals with Class I PI 3-kinases. Conditions: cited from earlier work.
The subject of a further assay is superoxide release. The settings on record: cited from earlier work.
A further assay relates to neutrophil migration. The settings on record: cited from earlier work.
The next assay concerns the target p110δ (Homo sapiens (Human), UniProt O00329). Conditions: cited from earlier work.
Another assay deals with protein kinases. Conditions: cited from earlier work.
The test system of assay [1] is ovalbumin-induced airway inflammation. Conditions: cited from earlier work.
Assay [2] deals with mouse model of rheumatoid arthritis. The settings on record: in vivo; cited from earlier work.
Assay [3] deals with model of systemic lupus erythematosis. Conditions: in vivo; cited from earlier work.
In the next assay the target is PI3Kδ (Homo sapiens (Human), UniProt O00329). It counts as biochemical. Conditions: PI3Kδ Alphascreen assay.
Sequence of PI3Kδ (O00329 whole entry): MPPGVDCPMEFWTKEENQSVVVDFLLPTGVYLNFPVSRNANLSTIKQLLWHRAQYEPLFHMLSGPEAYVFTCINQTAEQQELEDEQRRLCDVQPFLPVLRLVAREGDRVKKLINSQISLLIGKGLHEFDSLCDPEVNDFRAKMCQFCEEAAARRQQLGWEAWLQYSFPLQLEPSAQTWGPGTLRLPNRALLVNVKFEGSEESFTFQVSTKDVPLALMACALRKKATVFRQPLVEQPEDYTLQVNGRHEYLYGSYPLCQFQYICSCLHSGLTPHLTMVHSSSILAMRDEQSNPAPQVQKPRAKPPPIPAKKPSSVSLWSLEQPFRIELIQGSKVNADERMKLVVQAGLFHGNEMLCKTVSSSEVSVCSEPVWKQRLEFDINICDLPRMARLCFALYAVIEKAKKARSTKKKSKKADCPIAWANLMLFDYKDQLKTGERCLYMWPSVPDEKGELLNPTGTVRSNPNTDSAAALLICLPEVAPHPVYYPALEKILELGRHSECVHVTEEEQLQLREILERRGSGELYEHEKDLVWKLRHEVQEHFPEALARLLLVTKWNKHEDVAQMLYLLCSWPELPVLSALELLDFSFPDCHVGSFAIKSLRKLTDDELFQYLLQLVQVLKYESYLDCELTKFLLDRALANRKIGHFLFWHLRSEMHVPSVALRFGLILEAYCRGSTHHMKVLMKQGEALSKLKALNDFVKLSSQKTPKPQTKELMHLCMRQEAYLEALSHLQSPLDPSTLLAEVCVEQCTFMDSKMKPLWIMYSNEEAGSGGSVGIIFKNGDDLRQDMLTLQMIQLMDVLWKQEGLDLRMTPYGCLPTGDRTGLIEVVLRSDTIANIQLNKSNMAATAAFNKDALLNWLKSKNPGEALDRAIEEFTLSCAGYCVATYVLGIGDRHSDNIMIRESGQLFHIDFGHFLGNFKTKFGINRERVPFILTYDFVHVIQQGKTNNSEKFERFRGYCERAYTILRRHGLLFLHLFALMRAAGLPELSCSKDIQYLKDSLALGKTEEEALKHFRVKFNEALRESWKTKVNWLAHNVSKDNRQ
Sequence of PI3Kδ (P27986 whole entry partner): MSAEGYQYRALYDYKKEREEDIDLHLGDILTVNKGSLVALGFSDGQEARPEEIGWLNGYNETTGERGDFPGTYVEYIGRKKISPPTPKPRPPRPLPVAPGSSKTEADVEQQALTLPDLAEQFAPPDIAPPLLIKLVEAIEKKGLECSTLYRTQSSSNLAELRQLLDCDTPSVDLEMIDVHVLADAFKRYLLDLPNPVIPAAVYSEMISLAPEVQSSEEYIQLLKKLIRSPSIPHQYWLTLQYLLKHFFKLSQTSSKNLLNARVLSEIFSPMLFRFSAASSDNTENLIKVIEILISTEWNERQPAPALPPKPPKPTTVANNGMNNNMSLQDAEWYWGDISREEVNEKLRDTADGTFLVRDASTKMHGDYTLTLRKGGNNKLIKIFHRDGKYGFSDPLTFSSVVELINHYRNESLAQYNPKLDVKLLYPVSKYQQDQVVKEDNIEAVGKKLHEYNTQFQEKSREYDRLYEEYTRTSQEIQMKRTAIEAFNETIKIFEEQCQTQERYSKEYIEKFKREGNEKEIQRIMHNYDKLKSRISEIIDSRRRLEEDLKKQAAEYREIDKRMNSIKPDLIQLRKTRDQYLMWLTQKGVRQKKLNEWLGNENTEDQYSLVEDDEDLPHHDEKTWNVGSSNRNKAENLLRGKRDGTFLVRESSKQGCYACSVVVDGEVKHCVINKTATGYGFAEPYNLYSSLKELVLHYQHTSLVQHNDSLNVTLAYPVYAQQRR

Sequence of p110δ (O00329 whole entry, species assumed): as the sequence (O00329 whole entry) above
Sequence of p110δ (P27986 whole entry partner, species assumed): as the sequence (P27986 whole entry partner) above
Method for PI3Kδ: A PI3K Alphascreen® assay (PerkinElmer, Waltham, Mass.) was used to measure the activity of a panel of four phosphoinositide 3-kinases: PI3Kα, PI3Kβ, PI3Kγ, and PI3Kδ. Enzyme reaction buffer was prepared using sterile water (Baxter, Deerfield, Ill.) and 50 mM Tris HCl pH 7, 14 mM MgCl2, 2 mM sodium cholate, and 100 mM NaCl. 2 mM DTT was added fresh the day of the experiment. The Alphascreen buffer was made using sterile water and 10 mM Tris HCl pH 7.5, 150 mM NaCl, 0.10% Tween 20, and 30 mM EDTA. 1 mM DTT was added fresh the day of the experiment. Compound source plates used for this assay were 384-well Greiner clear polypropylene plates containing test compounds at 5 mM and diluted 1:2 over 22 concentrations. Columns 23 and 24 contained only DMSO as these wells comprised the positive and negative controls, respectively. Source plates were replicated by transferring 0.5 uL per well into 384-well Optiplates (PerkinElmer, Waltham, Mass.).
Each PI3K isoform was diluted in enzyme reaction buffer to 2× working stocks. PI3Kα was diluted to 1.6 nM, PI3Kβ was diluted to 0.8 nM, PI3Kγ was diluted to 15 nM, and PI3Kδ was diluted to 1.6 nM. PI(4,5)P2 (Echelon Biosciences, Salt Lake City, Utah) was diluted to 10 μM and ATP was diluted to 20 μM. This 2× stock was used in the assays for PI3Kα and PI3Kβ. For assay of PI3Kγ and PI3Kδ, PI(4,5)P2 was diluted to 10 μM and ATP was diluted to 8 μM to prepare a similar 2× working stock. Alphascreen reaction solutions were made using beads from the anti-GST Alphascreen kit (PerkinElmer, Waltham, Mass.). Two 4× working stocks of the Alphascreen reagents were made in Alphascreen reaction buffer. In one stock, biotinylated-IP4 (Echelon Biosciences, Salt Lake City, Utah) was diluted to 40 nM and streptavadin-donor beads were diluted to 80 μg/mL. In the second stock, PIP3-binding protein (Echelon Biosciences, Salt Lake City, Utah) was diluted to 40 nM and anti-GST-acceptor beads were diluted to 80 μg/mL.
Using a 384-well Multidrop (Titertek, Huntsville, Ala.), 10 μL/well of 2× enzyme stock was added to columns 1-24 of the assay plates for each isoform. 10 μL/well of the appropriate substrate 2× stock (containing 20 μM ATP for the PI3Kα and β assays and containing 8 μM ATP for the PI3Kγ and δ assays) was then added to Columns 1-24 of all plates. Plates were then incubated at room temperature for 20 minutes. In the dark, 10 μL/well of the donor bead solution was added to columns 1-24 of the plates to quench the enzyme reaction. The plates were incubated at room temperature for 30 minutes. Still in the dark, 10 μL/well of the acceptor bead solution was added to columns 1-24 of the plates. The plates were then incubated in the dark for 1.5 hours. The plates were read on an Envision multimode Plate Reader (PerkinElmer, Waltham, Mass.) using a 680 nm excitation filter and a 520-620 nm emission filter.

In the case of `COC[C@H]1OC(=O)c2coc3c2[C@@]1(C)C1=C(C3=O)[C@@H]2CCC(=O)[C@@]2(C)C[C@H]1OC(C)=O` [wortmannin], in the assay with Class I PI 3-kinases (wortmannin, read-out: IC50 values against each of the various Class I PI 3-kinases), the IC50 was 1 to 10 nM. Besides, the superoxide release result with superoxide release was “block”. Moreover, the neutrophil migration result with neutrophil migration is on record as “block”.
Regarding `Cc1ccccc1-n1c(Cn2cnc3c(N)ncnc32)nc2cccc(C)c2c1=O` [IC87114], at p110δ, the “inhibits p110δ” value is listed as “high nanomolar range (triple digit)”. For the same compound, in the assay on protein kinases, the “activity against any protein kinases tested” value was “no activity”. Besides, the “inflammation and disease in a murine model of asthma” value in assay [1] was “significantly ameliorate inflammation and disease”.
As for `O=c1cc(N2CCOCC2)oc2c(-c3ccccc3)cccc12` [LY294002], the IC50 in the assay on Class I PI 3-kinases (LY294002, read-out: IC50 values against each of these PI 3-kinases) is about 1000 nM. Also, in the assay on superoxide release, the superoxide release result is “block”. In the assay on neutrophil migration, the neutrophil migration result is given as “block”.
In the case of `O=C1NC(=O)/C(=C\c2ccc3nccnc3c2)S1` [AS 605240], the “efficacy in a mouse model of rheumatoid arthritis” value in assay [2] is reported as “efficacious”. The “onset of disease in a model of systemic lupus erythematosis” value in [3] is given as “delay onset of disease”.
As to `Cc1c(-c2ccccc2)nc2ncccc2c1N1CC2(CCOCC2)c2ncc(N3CCOCC3)cc21` [1′-(3-methyl-2-phenyl-1,8-naphthyridin-4-yl)-6′-(4-morpholinyl)-1′,2,2′,3,5,6-hexahydrospiro[pyran-4,3′-pyrrolo[3,2-b]pyridine]], affinity on PI3Kδ was put at a Ki of 22.6 nM.
For `Cc1c(-c2ccccn2)nc2cc(F)ccc2c1N1CC(C)(C)c2ncc(N3CCOCC3)cc21` [4-(3,3-dimethyl-6-(4-morpholinyl)-2,3-dihydro-1H-pyrrolo[3,2-b]pyridin-1-yl)-7-fluoro-3-methyl-2-(2-pyridinyl)quinoline], the Ki at PI3Kδ is 6.76 nM.
On PI3Kδ, `CCc1c(C)nc2ccc(Cl)cc2c1N1CC(C)(C)c2ccc(N3CCOCC3)cc21` [6-chloro-4-(3,3-dimethyl-6-(4-morpholinyl)-2,3-dihydro-1H-indol-1-yl)-3-ethyl-2-methylquinoline] registered a Ki of 1130 nM.
At PI3Kδ, `Cc1c(-c2ccccn2)nc2cc(F)ccc2c1N1CC2(CCOCC2)c2ccc(N3CCOCC3)cc21` [1-(7-fluoro-3-methyl-2-(2-pyridinyl)-4-quinolinyl)-6-(4-morpholinyl)-1,2,2′,3′,5′,6′-hexahydrospiro[indole-3,4′-pyran]] yielded a Ki of 18.2 nM. This Ki is about 62-fold lower than that of the compound before.
For the compound `Cc1c(-c2ccccn2)nc2cccc(F)c2c1N1CCS(=O)(=O)c2ncc(N3CCOCC3)cc21` [1-(5-fluoro-3-methyl-2-(2-pyridinyl)-4-quinolinyl)-7-(4-morpholinyl)-2,3-dihydro-1H-pyrido[2,3-b][1,4]thiazine 4,4-dioxide], at PI3Kδ, the affinity corresponds to a Ki of 12.9 nM.
For the compound `Cc1c(Cc2cccc(F)c2)nc2cc(F)cc(F)c2c1N1CC(C)(C)c2ncc(N3CCOCC3)cc21` [4-(3,3-dimethyl-6-(4-morpholinyl)-2,3-dihydro-1H-pyrrolo[3,2-b]pyridin-1-yl)-5,7-difluoro-2-(3-fluorobenzyl)-3-methylquinoline], the inhibition constant (Ki) on PI3Kδ came out at 2.87 nM.
In the case of `Cc1c(-c2ccccn2)nc2cc(F)ccc2c1N1CC(C)(C)c2nc(Cl)c(N3CCOCC3)cc21` [4-(5-chloro-3,3-dimethyl-6-(4-morpholinyl)-2,3-dihydro-1H-pyrrolo[3,2-b]pyridin-1-yl)-7-fluoro-3-methyl-2-(2-pyridinyl)quinoline], the affinity at PI3Kδ, expressed as Ki, was 3.16 nM.
The same measure, in the same setting: the result for `COc1cc2nc(C)c(C)c(N3CC4(CCOCC4)c4ccc(C#N)cc43)c2cc1Cl` [1-(6-chloro-7-methoxy-2,3-dimethyl-4-quinolinyl)-1,2,2′,3′,5′,6′-hexahydrospiro[indole-3,4′-pyran]-6-carbonitrile] reads 7500 nM; that for `C=C(c1ccccc1)c1nc2cc(F)cc(F)c2c(N2CC(C)(C)c3ncc(N4CCOCC4)cc32)c1C` [4-(3,3-dimethyl-6-(4-morpholinyl)-2,3-dihydro-1H-pyrrolo[3,2-b]pyridin-1-yl)-5,7-difluoro-3-methyl-2-(1-phenylethenyl)quinoline], 2.9 nM; that for `Cc1nc2ccc(Cl)cc2c(-n2ccc3c(C#N)cc(N4CCOCC4)cc32)c1C` [1-(6-chloro-2,3-dimethyl-4-quinolinyl)-6-(4-morpholinyl)-1H-indole-4-carbonitrile], 153 nM.

The term IC50 denotes the point on the concentration scale where inhibition reaches its midpoint. In general, Ki refers to the dissociation constant of the complex between target and ligand, obtained from inhibition or displacement. High values mean weaker binding, low ones tighter binding.
